From patent US10294212B2 (CURADEV PHARMA PRIVATE LTD., priority 2013, dated 2019)

Key:
[1] = target: Human indoleamine 2,3-dioxygenase1 (hIDO1) (Homo sapiens (Human), UniProt P14902); test: In-vitro IDO1 enzyme assay (conversion of L-tryptophan to KYN); assay type: biochemical; conditions: read-out: IC50 (IDO1) Enz
Outline: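 Kynurenine formation quantified by HPLC absorbance at 360 nm or LC/MS/MS after TCA quench and 15 min at 65 °C. Reaction: 10 nM N-His hIDO1, 30 μM tryptophan, ascorbate/methylene blue/catalase, pH 6.5 phosphate buffer, 37 °C for 30 min. Inhibition relative to 1% DMSO vehicle, fitted to IC50.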

[2] = target: IDO1 in HeLa cells (Homo sapiens (Human), UniProt P14902); test: HeLa cell based IDO1 assay (IFNγ-induced, KYN in supernatant)
Outline: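 Kynurenine in the supernatant, quantified by C-18 HPLC with 360 nm absorbance after TCA hydrolysis (65 °C, 15 min), was the read-out. Compounds (typically 10 μM to 1 nM) were added in HBSS containing 80 μM tryptophan to HeLa cells pre-induced overnight with 50 ng/mL IFNγ. IC50 came from nonlinear fits of % inhibition versus 1% DMSO vehicle.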

[3] = target: Human TDO (hTDO)-transfected CHO-K1 cells (Homo sapiens (Human), UniProt P48775); test: CHO-K1 cell based TDO assay; conditions: hTDO cellular assay
Outline: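 Kynurenine output was read by LC/MS/MS after TCA precipitation and 15 min at 65° C. Before that, CHO-K1 cells stably carrying human TDO2 were incubated 2 h with compounds (typically 31 μM to 10 nM) and 80 μM L-tryptophan in HBSS. Decrease versus DMSO vehicle gave percent inhibition, then IC50.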

Chain of Human TDO (hTDO)-transfected CHO-K1 cells (P48775 whole entry): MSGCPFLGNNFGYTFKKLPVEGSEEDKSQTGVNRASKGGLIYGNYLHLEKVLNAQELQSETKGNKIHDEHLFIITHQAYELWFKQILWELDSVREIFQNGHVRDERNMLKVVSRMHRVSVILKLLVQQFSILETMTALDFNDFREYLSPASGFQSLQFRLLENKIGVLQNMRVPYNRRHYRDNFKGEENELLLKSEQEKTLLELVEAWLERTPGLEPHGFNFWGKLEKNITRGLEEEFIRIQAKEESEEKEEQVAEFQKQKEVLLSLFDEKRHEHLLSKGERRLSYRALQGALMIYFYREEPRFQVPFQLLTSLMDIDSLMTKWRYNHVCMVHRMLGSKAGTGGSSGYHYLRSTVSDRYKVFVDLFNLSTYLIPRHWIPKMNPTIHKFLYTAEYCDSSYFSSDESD
Chain of IDO1 in HeLa cells (P14902 whole entry): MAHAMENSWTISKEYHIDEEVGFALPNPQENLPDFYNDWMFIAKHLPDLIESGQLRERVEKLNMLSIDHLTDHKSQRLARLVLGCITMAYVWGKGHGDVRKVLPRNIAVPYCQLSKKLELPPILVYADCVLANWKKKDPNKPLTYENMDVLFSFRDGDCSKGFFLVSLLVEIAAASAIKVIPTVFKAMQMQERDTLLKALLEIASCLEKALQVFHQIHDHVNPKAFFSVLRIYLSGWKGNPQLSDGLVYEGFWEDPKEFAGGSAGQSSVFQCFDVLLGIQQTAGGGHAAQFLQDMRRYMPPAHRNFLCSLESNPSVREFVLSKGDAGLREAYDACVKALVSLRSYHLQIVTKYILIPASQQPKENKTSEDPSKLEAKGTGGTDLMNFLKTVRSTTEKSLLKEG
Chain of Human indoleamine 2,3-dioxygenase1 (hIDO1) (P14902 whole entry): as above

IC50 [1] [nM] | IC50 [2] [nM] | IC50 [3] [nM] | SMILES
< 200 | < 200 | > 2000 | COc1cc2c(Nc3ccc(F)c(Cl)c3)c(N)oc2c(I)n1 [Compound 167, N^3-(3-Chloro-4-fluorophenyl)-7-iodo-5-methoxyfuro[2,3-c]pyridine-2,3-diamine]
< 200 | < 200 | > 2000 | COc1cc2c(Nc3ccc(F)c(Cl)c3)c(N)oc2c(Br)n1 [Compound 172, 7-Bromo-N^3-(3-chloro-4-fluorophenyl)-5-methoxyfuro[2,3-c]pyridine-2,3-diamine]
< 200 | < 200 | > 2000 | COc1cc2c(Nc3ccc(F)c(Cl)c3)c(N)oc2c(-c2ccc(C#N)cc2)n1 [Compound 173, 4-(2-Amino-3-((3-chloro-4-fluorophenyl)amino)-5-methoxyfuro[2,3-c]pyridin-7-yl)benzonitrile]
< 200 | 200 to 1000 | 500 to 2000 | COc1cc2c(Nc3ccc(F)c(Cl)c3)c(N)oc2c(-c2ccc(F)cc2)n1 [Compound 174, N^3-(3-chloro-4-fluorophenyl)-7-(4-fluorophenyl)-5-methoxyfuro[2,3-c]pyridine-2,3-diamine]
< 200 | < 200 | > 2000 | COc1cc2c(Nc3ccc(F)c(Cl)c3)c(N)oc2c(-c2ccc(C(N)=O)cc2)n1 [Compound 175, 4-(2-amino-3-((3-chloro-4-fluorophenyl)amino)-5-methoxyfuro[2,3-c]pyridin-7-yl)benzamide]
< 200 | < 200 | < 500 | Nc1oc2c(F)nccc2c1Nc1ccc(F)c(Cl)c1 [Compound 176, N^3-(3-chloro-4-fluorophenyl)-7-fluorofuro[2,3-c]pyridine-2,3-diamine]
< 200 | < 200 | 500 to 2000 | Nc1oc2cnc(Cl)cc2c1Nc1ccc(F)c(Cl)c1 [Compound 177, 5-Chloro-N3-(3-chloro-4-fluorophenyl)furo[2,3-c]pyridine-2,3-diamine]
< 200 | < 200 | 500 to 2000 | Nc1oc2cc([N+](=O)[O-])ccc2c1Nc1ccc(F)c(Cl)c1 [Compound 179, N^3-(3-chloro-4-fluorophenyl)-6-nitrobenzofuran-2,3-diamine]
< 200 | < 200 | 500 to 2000 | Nc1oc2c(-c3ccncc3)nc(F)cc2c1Nc1ccc(F)c(Cl)c1 [Compound 180, N^3-(3-Chloro-4-fluorophenyl)-5-fluoro-7-(pyridin-4-yl)furo[2,3-c]pyridine-2,3-diamine]
< 200 | < 200 | < 500 | Nc1oc2cnc(F)cc2c1Nc1ccc(F)c(Cl)c1 [Compound 181, N^3-(3-Chloro-4-fluorophenyl)-5-fluorofuro[2,3-c]pyridine-2,3-diamine]
< 200 | < 200 | > 2000 | N#Cc1nccc2c(Nc3ccccc3Cl)c(N)oc12 [Compound 182, 2-Amino-3-((2-chlorophenyl)amino)furo[2,3-c]pyridine-7-carbonitrile]
< 200 | < 200 | 500 to 2000 | N#Cc1nccc2c(Nc3ccc(F)c(C(F)(F)F)c3)c(N)oc12 [Compound 183, 2-Amino-3-((4-fluoro-3-(trifluoromethyl)phenyl)amino)furo[2,3-c]pyridine-7-carbonitrile]

SMILES | IC50 [1] [nM] | IC50 [2] [nM] | IC50 [3] [nM]
N#Cc1nccc2c(Nc3ccc(F)c(F)c3)c(N)oc12 [Compound 185, 2-Amino-3-((3,4-difluorophenyl)amino)furo[2,3-c]pyridine-7-carbonitrile] | 200 to 1000 | < 200 | < 500
N#Cc1nccc2c(Nc3cc(F)cc(F)c3)c(N)oc12 [Compound 186, 2-Amino-3-((3,5-difluorophenyl)amino)furo[2,3-c]pyridine-7-carbonitrile] | > 1000 | > 1000 | 500 to 2000
